These results are taken from US9822128B1, “Substituted spirooxindoles” (KING SAUD UNIVERSITY, priority 2017, dated 2017).

Like-named read-outs stand apart in the source and are kept apart here.

For one assay, the system named is HCT-116. Kind of assay: MTT cytotoxicity assay, colon cancer cells. Conditions: for SI: Selectivity Index from IC50 normal (VERO-B) and IC50 cancer (HCT-116). Format: cell-based, human. As to the method: (§1) The cytotoxic activity of the compounds was tested against different mammalian cancer cells, prostate carcinoma cells (PC-3), hepatocellular carcinoma (HepG2) and colon cancer cells (HCT-116) and against African green monkey kidney cell line (Vero-B). The cell lines were obtained from American Type Culture Collection (ATCC). The cells were cultivated at 37° C. and 10% CO2 in DMEM (Lonza, 12-604F) medium supplemented with 10% fetal bovine serum (FBS, Lonza, Cat. No. 14-801E), 100 IU/ml penicillin and 100 μg/ml streptomycin (Lonza, 17-602E). Cisplatin (cis-diamineplatinum (II) dichloride) was used as a positive control and was obtained from Sigma then dissolved in 0.9% saline then stored as 8 mM stock solution at −20° C. The synthesized compounds were solubilized in DMSO and stored at −20° C. 0.5% crystal violet was prepared in Methanol and was used to stain the viable cells (Feoktistova, Geserick et al. 2016). Crystal violet binds to proteins and DNA in the adherent and viable cells so the stain is an indicator for the viability of the treated cells. The viability of the cells were quantified by using MTT reagent (3-(4,5-dimethylthiazol-2-yl)-2,5-diphenyl tetrazolium bromide), which measure the activity of mitochondrial dehydrogenase in the viable cells (Slater, Sawyer et al. 1963, Mosmann 1983).
(§2) Cytotoxicity was further assayed as follows. The cells were seeded in 96-well plate as 5*10^4 cells/mL (100 μL/well). A serial dilutions of tested compounds or cisplatin (100, 30, 10, 3.3, 1.1 or 0.37 μM) was added after overnight incubation of the cells at 37° C. and 5% CO2. DMSO was used as a control (0.1%). The cells were incubated for 48 hrs. After that, 15 μl of MTT (5 mg/mL PBS) was added to each well and incubated for another 4 hours. The formazan crystals were solubilized by 100 μL acidified SDS solution (10% SDS/0.01 M HCl). The absorbance was measured after 14 hours of incubation at 37° C. and 5% CO2 at 570 nm by Biotech plate reader. Each experiment was repeated three times and standard deviation was calculated (±). IC50% was calculated as the concentration that cause 50% inhibition for cell growth. The growth of the cells were monitored and the images were acquired by Gx microscopes (GXMGXD202 Inverted Microscope) (10× Eyepiece) after staining with crystal violet.

A further assay concerns HepG2. Kind of assay: MTT cytotoxicity assay, hepatocellular carcinoma cells. The class given is cell-based, human. The settings on record: for SI: Selectivity Index from IC50 normal (VERO-B) and IC50 cancer (HepG2). As for the experimental part:
as §1, §2

For the next assay, the system named is PC-3. Nature of the assay: MTT cytotoxicity assay, prostate carcinoma cells. Format: cell-based, human. The settings on record: for SI: Selectivity Index from IC50 normal (VERO-B) and IC50 cancer (PC-3). As to the method: as §1, §2
(Tetrazolium dyes change colour on reduction, which living cells bring about.)

The test system of another assay is Vero-B. Kind of assay: MTT cytotoxicity assay, normal kidney cell line. Format: cell-based, African green monkey. Conditions: read-out: VERO-B (IC50% μM). As for the experimental part:
as §1, §2

Setting [1] is: Homo sapiens, HCT-116, MTT, 48 hrs incubation, read-out: HCT-116 (IC50% μM).
Setting [2] is: Homo sapiens, HCT-116, MTT, 48 hrs incubation, read-out: HCT-116 (IC50% μg/ml).
Setting [3] is: Homo sapiens, HepG2, MTT, 48 hrs incubation, read-out: HepG2 (IC50% μM).
[4] abbreviates: Homo sapiens, HepG2, MTT, 48 hrs incubation, read-out: HepG2 (IC50% μg/ml).
[5] abbreviates: Chlorocebus sabaeus, Vero B, Table 1, MTT, 48 hrs incubation.
Setting [6] is: Homo sapiens, PC-3, MTT, 48 hrs incubation, read-out: PC-3 (IC50% μM).
The mark [7] stands for this setting: Homo sapiens, PC-3, MTT, 48 hrs incubation, read-out: PC-3 (IC50% μg/ml).
[8] abbreviates: Homo sapiens, HCT-116, 48 h, read-out: HCT-116 (IC50% μM), MTT, 48 hrs incubation.
The mark [9] stands for this setting: Homo sapiens, HCT-116, 48 h, read-out: HCT-116 (IC50% μg/ml), MTT, 48 hrs incubation.
The mark [10] stands for this setting: Chlorocebus sabaeus, Vero B, 48 h.
[11] abbreviates: read-out: HCT-116 (IC50% μM), MTT, 48 hrs incubation.

For the molecule `N.N.[Cl][Pt][Cl]` [Cisplatin, cis-diamineplatinum (II) dichloride, reference compound], the “HCT-116 (IC50% μg/ml)” value in the assay with HCT-116 (MTT, 48 hrs incubation) amounted to 3.8 µg/mL. Besides, the IC50 stood at 12.6 ± 2 µM in the assay on HCT-116 (MTT, 48 hrs incubation, read-out: HCT-116 (IC50% μM)); 5.5 ± 1 µM with HepG2 (MTT, 48 hrs incubation, read-out: HepG2 (IC50% μM)); 5 ± 0.5 µM in the assay with PC-3 (MTT, 48 hrs incubation, read-out: PC-3 (IC50% μM)); 5 µM in the assay with Vero-B (Table 1, MTT, 48 hrs incubation); 5 µM in the assay on Vero-B (Table 2, MTT, 48 hrs incubation); 5 µM in the assay with Vero-B (Table 3, MTT, 48 hrs incubation). In addition, the SI in the assay on HCT-116 is 0.3968; in the assay with HepG2, 0.9091; with PC-3, 1. The “HepG2 (IC50% μg/ml)” value in the assay with HepG2 (MTT, 48 hrs incubation) was found to be 1.7 µg/mL. Besides, in the assay on PC-3 (MTT, 48 hrs incubation), the “PC-3 (IC50% μg/ml)” value came out at 1.5 µg/mL.
For the molecule `Cc1ccc(/C=C/C(=O)[C@H]2[C@H](c3ccc(C)cc3)[C@H]3CSCN3[C@]23C(=O)Nc2ccccc23)cc1` [Compound 4b, (3R,6′S,7′R,7a′S)-7′-(p-tolyl)-6′-((E)-3-(p-tolyl)acryloyl)-1′,6′,7′,7a′-tetrahydro-3′H-spiro[indoline-3,5′-pyrrolo[1,2-c]thiazol]-2-one], the IC50 in the assay on HCT-116 (setting [1]) amounted to 8 ± 1.2 µM; in the assay with HCT-116 (setting [2]), 3.8 µg/mL; in the assay on HepG2 (setting [3]) it was 3.57 ± 0.5 µM; in the assay on HepG2 (setting [4]) it was 1.7 µg/mL; with Vero-B (setting [5]) it was 11.8 µM. Further, the SI is reported as 1.475 in the assay on HCT-116 and 3.305 in the assay on HepG2.
For `O=C(/C=C/c1ccc(Cl)cc1)[C@H]1[C@H](c2ccc(Cl)cc2)[C@H]2CSCN2[C@]12C(=O)Nc1ccccc12` [Compound 4c, (3R,6′S,7′R,7a′S)-7′-(4-chlorophenyl)-6′-((E)-3-(4-chlorophenyl)acryloyl)-1′,6′,7′,7a′-tetrahydro-3′H-spiro[indoline-3,5′-pyrrolo[1,2-c]thiazol]-2-one], the IC50 in the assay on HCT-116 (setting [1]) was 3 ± 0.5 µM; in the assay on HCT-116 (setting [2]) it was 1.6 µg/mL; in the assay with HepG2 (setting [3]) it was 2 ± 0.5 µM; with HepG2 (setting [4]), 1 µg/mL; in the assay on PC-3 (setting [6]) it was 2.7 ± 0.4 µM; in the assay with PC-3 (setting [7]), 1.4 µg/mL. Besides, the IC50 in the assay with Vero-B (setting [5]) worked out at 7 µM. Besides, the SI with HepG2 is listed as 3.5; with PC-3, 2.593.
For the molecule `O=C(/C=C/c1c(Cl)cccc1Cl)[C@H]1[C@H](c2c(Cl)cccc2Cl)[C@H]2CSCN2[C@]12C(=O)Nc1ccccc12` [Compound 4e, (3R,6′S,7′R,7a′S)-7′-(2,6-dichlorophenyl)-6′-((E)-3-(2,6-dichlorophenyl)acryloyl)-1′,6′,7′,7a′-tetrahydro-3′H-spiro[indoline-3,5′-pyrrolo[1,2-c]thiazol]-2-one], the IC50 in the assay on HCT-116 (setting [1]) came out at 3 ± 0.3 µM; with HCT-116 (setting [2]), 1.8 µg/mL; in the assay with HepG2 (setting [3]) it was 1 ± 0.3 µM; with HepG2 (setting [4]) it was 0.6 µg/mL; with Vero-B (setting [5]) it was 3 µM. In addition, the values for the SI in the assay on HCT-116 and in the assay with HepG2 were 1 and 3, respectively.
As for `O=C(/C=C/c1ccc(Br)cc1)[C@H]1[C@H](c2ccc(Br)cc2)[C@H]2CSCN2[C@]12C(=O)Nc1ccccc12` [Compound 4f, (3R,6′S,7′R,7a′S)-7′-(4-bromophenyl)-6′-((E)-3-(4-bromophenyl)acryloyl)-1′,6′,7′,7a′-tetrahydro-3′H-spiro[indoline-3,5′-pyrrolo[1,2-c]thiazol]-2-one], the IC50 with HCT-116 (setting [1]) is 3 ± 0.5 µM; in the assay with HCT-116 (setting [2]) it was 1.8 µg/mL; in the assay with HepG2 (setting [3]), 0.8 ± 0.1 µM; in the assay with HepG2 (setting [4]), 0.5 µg/mL; with Vero-B (setting [5]), 3 µM. For the same molecule, the results for the SI in the assay on HCT-116 and with HepG2 were 1 and 3.75, respectively.
As for `O=C(/C=C/c1cccc([N+](=O)[O-])c1)[C@H]1[C@H](c2cccc([N+](=O)[O-])c2)[C@H]2CSCN2[C@]12C(=O)Nc1ccccc12` [Compound 4g], the IC50 in the assay with HCT-116 (setting [8]) was determined as 2.5 ± 0.2 µM; with HCT-116 (setting [9]), 1.4 µg/mL; in the assay on Vero-B (setting [10]), 2.5 µM. The SI with HCT-116 is given as 1.
Regarding `COc1ccc(/C=C/C(=O)[C@H]2[C@H](c3ccc(OC)cc3)[C@H]3CSCN3[C@]23C(=O)Nc2ccccc23)cc1` [Compound 4h, (3R,6′S,7′R,7a′S)-7′-(4-methoxyphenyl)-6′-((E)-3-(4-methoxyphenyl)acryloyl)-1′,6′,7′,7a′-tetrahydro-3′H-spiro[indoline-3,5′-pyrrolo[1,2-c]thiazol]-2-one], the IC50 was determined as 7 ± 0.9 µM in the assay on HCT-116 (setting [1]); 3.6 µg/mL in the assay with HCT-116 (setting [2]); 2.25 ± 0.2 µM with HepG2 (setting [3]); 1.1 µg/mL in the assay on HepG2 (setting [4]); 7.5 µM with Vero-B (setting [5]). The SI in the assay with HCT-116 came to 1.071; in the assay on HepG2, 3.333.
As to `O=C(/C=C/c1ccc2ccccc2c1)[C@H]1[C@H](c2ccc3ccccc3c2)[C@H]2CSCN2[C@]12C(=O)Nc1ccccc12` [Compound 4i, (3R,6′S,7′R,7a′S)-7′-(naphthalen-2-yl)-6′-((E)-3-(naphthalen-2-yl)acryloyl)-1′,6′,7′,7a′-tetrahydro-3′H-spiro[indoline-3,5′-pyrrolo[1,2-c]thiazol]-2-one], the IC50 with HCT-116 (setting [1]) was 8 ± 0.3 µM; in the assay with HCT-116 (setting [2]) it was 4.4 µg/mL; in the assay on HepG2 (setting [3]), 2.4 ± 1 µM; in the assay on HepG2 (setting [4]), 1.3 µg/mL; in the assay on PC-3 (setting [6]) it was 2.9 ± 0.2 µM; in the assay on PC-3 (setting [7]), 1.6 µg/mL. In addition, in the assay on Vero-B (setting [5]), the IC50 was found to be 7 µM. The SI is 0.875 in the assay with HCT-116, 2.917 with HepG2 and 2.414 in the assay with PC-3.
As to `O=C(/C=C/c1cccs1)[C@H]1[C@H](c2cccs2)[C@H]2CSCN2[C@]12C(=O)Nc1ccccc12` [Compound 4j, (3R,6′S,7′S,7a′S)-7′-(thiophen-2-yl)-6′-((E)-3-(thiophen-2-yl)acryloyl)-1′,6′,7′,7a′-tetrahydro-3′H-spiro[indoline-3,5′-pyrrolo[1,2-c]thiazol]-2-one], the IC50 in the assay on HCT-116 (setting [8]) was no less than 10 µM; with HCT-116 (setting [9]), 6.7 µg/mL; with HCT-116 (setting [11]), 14.5 ± 1.5 µM; with Vero-B (setting [10]) it was 18 µM. Moreover, the SI with HCT-116 is 1.241.
The matching figures for `O=C(/C=C/c1ccco1)[C@H]1[C@H](c2ccco2)[C@H]2CSCN2[C@]12C(=O)Nc1ccccc12` [Compound 4k, (3R,6′S,7′S,7a′S)-7′-(furan-2-yl)-6′-((E)-3-(furan-2-yl)acryloyl)-1′,6′,7′,7a′-tetrahydro-3′H-spiro[indoline-3,5′-pyrrolo[1,2-c]thiazol]-2-one]: no less than 10 µM, 10.1 µg/mL, 19 ± 2 µM, 25 µM and 1.316.
In the case of `O=C(/C=C/c1cccc(Br)c1)[C@H]1[C@H](c2cccc(Br)c2)[C@H]2CSCN2[C@]12C(=O)Nc1ccccc12` [Compound 4l, (3R,6′S,7′R,7a′S)-7′-(3-bromophenyl)-6′-((E)-3-(3-bromophenyl)acryloyl)-1′,6′,7′,7a′-tetrahydro-3′H-spiro[indoline-3,5′-pyrrolo[1,2-c]thiazol]-2-one], the IC50 in the assay on HCT-116 (setting [1]) was 1.57 ± 0.3 µM; in the assay on HCT-116 (setting [2]), 0.95 µg/mL; in the assay on HepG2 (setting [3]), 0.9 ± 0.1 µM; with HepG2 (setting [4]), 0.5 µg/mL; in the assay with PC-3 (setting [6]) it was 1.5 ± 0.5 µM; with PC-3 (setting [7]), 0.9 µg/mL. For the same molecule, the IC50 in the assay with Vero-B (setting [5]) worked out at 3 µM. For the same molecule, the SI in the assay with HCT-116 was determined as 1.911; in the assay with HepG2 it was 3.333; in the assay on PC-3 it was 2.
